Results from PMC8780434 (Viruses, 2022).
Several values for one entry are separate records, joined by “and”; a condition that tells them apart may be missing. Equal entries are not always repeated. Where two headings read alike, the source gives them in different places. One block for each molecule: values may come before it.

Legend:
EV71 [1] = test: Western blot of viral VP1 in EV71-infected RD cells; conditions: for VP1/Tubulin (%): EV71 MOI 1, 6 h, DMSO = 100; for antiviral activity against EV71 infections, rank among SSRIs: 5 or 10 μM, Western blot
[2] = Cell viability assay (CellTiter 96 AQueous) in RD cells; conditions: human
[3] = Secondary screening cell cytotoxicity; conditions: at 10 μM, secondary screening criterion
EV71 [4] = test: Immunofluorescence assay (IFA) of anti-EV71 potency; assay type: cell-based, EV71 (strain BrCr); conditions: Enterovirus A, EV71 MOI 0.1, 12 h p.i.
[5] = Cell viability assay (CellTiter 96 AQueous) in HeLa cells; conditions: human
[6] = human, 12 h, 10 μM
in vitro [7] = conditions: human
in vitro [8] = conditions: human; remark: listed apart in the source
EV71 [9] = conditions: active in the range of several mM; cited from earlier work
EV71 [10] = test: Time-of-addition assay (RT-qPCR of viral RNA); assay type: cell-based, EV71 (strain BrCr); conditions: RD cells, 10 μM, MOI 0.1, RT-qPCR
EV71 [11] = test: Virus binding assay (RT-qPCR); conditions: RD cells, 5 or 10 μM, 0 °C 1 h, MOI 5
[12] = design: method as in earlier work; conditions: cited from earlier work
EV71 [13] = test: Low-pH exposure assay (Western blot and plaque assay); assay type: cell-based, EV71 (strain BrCr); conditions: 10 μM; for times more viral titer than the sertraline-treated pH 7.4 control: 12 h
EV71 [14] = test: Virus internalization assay (RT-qPCR); conditions: RD cells, 5 or 10 μM, 37 °C 1 h after binding, trypsinized, MOI 5
EV71 [15] = test: FRET-based biosensor drug screening (HeLa-G2AwtR cells) for EV71 inhibitors; assay type: cell-based, EV71 (strain BrCr); conditions: Enterovirus A, read-out: inhibition rate
[16] = 5 μM drug, HeLa-G2AwtR cells, EV71 MOI 1, 12 h

Structure (SMILES): CN(C)CCCN1c2ccccc2Sc2ccc(Cl)cc21 [CPZ, chlorpromazine]
- VP1/Tubulin (%) (EV71 [1]; 5 μM): 109%
- VP1/Tubulin (%) (EV71 [1]; 10 μM): 54%

Structure (SMILES): CCN(CC)CCCC(C)Nc1ccnc2cc(Cl)ccc12 (stereo not shown) [CQ, chloroquine]
- VP1/Tubulin (%) (EV71 [1]; 5 μM): 52%
- VP1/Tubulin (%) (EV71 [1]; 10 μM): 15%

Structure (SMILES): COCCCC/C(=N\OCCN)c1ccc(C(F)(F)F)cc1 [FLX, fluvoxamine]
- VP1/Tubulin (%) (EV71 [1]; 5 μM): 82%
- VP1/Tubulin (%) (EV71 [1]; 10 μM): 77%
- antiviral activity against EV71 infections, rank among SSRIs (EV71 [1]): weakest antiviral activity

- IC50 (EV71 [4]; HeLa cells): 2.94 µM
- IC50 (EV71 [4]; RD cells): 3.59 µM
Structure (SMILES): CCCCCCCCc1ccc(CCC(N)(CO)CO)cc1 [Fingolimod]
- CC50 at 12 h [2]: 24.5 µM
- cell cytotoxicity [3]: < 20%
- CC50 at 12 h [5]: 21.8 µM

Structure (SMILES): Oc1c(Cl)cc(Cl)c(Cl)c1Cc1c(O)c(Cl)cc(Cl)c1Cl [Hexachorophene, Hexachlorophene]
- cell cytotoxicity [3]: < 20%

- IC50 (EV71 [4]; HeLa cells): 3.25 µM
- IC50 (EV71 [4]; RD cells): 3.89 µM
Structure (SMILES): OC(c1cc(C(F)(F)F)nc2c(C(F)(F)F)cccc12)C1CCCCN1 (stereo not shown) [Mefloquine]
- cell cytotoxicity [6]: < 20%
- CC50 at 12 h (in vitro [7]): 30 µM
- CC50 at 12 h (in vitro [8]): 29.8 µM

Structure (SMILES): Cl.N [NH4Cl]
- antiviral effect compared with sertraline and chloroquine (EV71 [9]): much weaker antiviral effect

- IC50 (EV71 [4]; HeLa cells): 4.17 µM
- IC50 (EV71 [4]; RD cells): 4.74 µM
Structure (SMILES): OC(CNCC(O)C1CCc2cc(F)ccc2O1)C1CCc2cc(F)ccc2O1 (stereo not shown) [Nebivolol]
- cell cytotoxicity [6]: < 20%
- CC50 at 12 h (in vitro [7]): 32.9 µM
- CC50 at 12 h (in vitro [8]): 32.7 µM

Structure (SMILES): Fc1ccc([C@@H]2CCNC[C@H]2COc2ccc3c(c2)OCO3)cc1 [PAR, paroxetine]
- VP1/Tubulin (%) (EV71 [1]; 5 μM): 74%
- VP1/Tubulin (%) (EV71 [1]; 10 μM): 48%

Structure (SMILES): CN[C@H]1CC[C@@H](c2ccc(Cl)c(Cl)c2)c2ccccc21 [Sertraline]
- viral RNA levels, post-entry step (EV71 [10]; drug present 2-12 h): negligible effect
- viral RNA levels, entry step (EV71 [10]; drug present -2 to 2 h): profound reduction
- viral RNA levels, virus binding, versus drug-free control (EV71 [11]): undetectable difference
- cell cytotoxicity [6]: < 20%
- maximum concentration in human plasma [12]: approximately 200 ng/mL and ~ 654 nM
- times more viral titer than the sertraline-treated pH 7.4 control (EV71 [13]; HeLa cells, pH 5 medium 10 min): 13.4 times
- times more viral titer than the sertraline-treated pH 7.4 control (EV71 [13]; HeLa cells, pH 5.5 medium 10 min): 4 times
- viral replication at the levels of viral protein after low-pH shocks (EV71 [13]; RD and HeLa cells, pH 5.5 and 5, 6 h p.i., Western blot): markedly rescued
- times more viral titer than the sertraline-treated pH 7.4 control (EV71 [13]; RD cells, pH 5 medium 10 min): 16 times
- times more viral titer than the sertraline-treated pH 7.4 control (EV71 [13]; RD cells, pH 5.5 medium 10 min): 5.7 times
- VP1/Tubulin (%) (EV71 [1]; 5 μM): 58%
- VP1/Tubulin (%) (EV71 [1]; 10 μM): 10%
- antiviral activity against EV71 infections, rank among SSRIs (EV71 [1]): strongest inhibitory effect
- viral RNA levels, virus internalization, versus drug-free control (EV71 [14]): undetectable difference

Structure (SMILES): COc1cccc2c1C(=O)c1c(O)c3c(c(O)c1C2=O)C[C@@](O)(C(C)=O)C[C@@H]3O[C@H]1C[C@H](N)[C@H](O)[C@H](C)O1 [daunorubicin]
- inhibition at 5 µM (EV71 [15]; EV71, 12 h): > 50%

Structure (SMILES): COc1cccc2c1C(=O)c1c(O)c3c(c(O)c1C2=O)C[C@@](O)(C(=O)CO)C[C@@H]3O[C@H]1C[C@H](N)[C@H](O)[C@H](C)O1 [doxorubicin]
- inhibition at 5 µM (EV71 [15]; [16]): > 50%

Structure (SMILES): COc1cccc2c1C(=O)c1c(O)c3c(c(O)c1C2=O)C[C@@](O)(C(=O)CO)C[C@@H]3O[C@H]1C[C@H](N)[C@@H](O)[C@H](C)O1 [epirubicin]
- inhibition at 5 µM (EV71 [15]; [16]): > 50%

Structure (SMILES): Nc1ccn([C@@H]2O[C@H](CO)[C@@H](O)C2(F)F)c(=O)n1 [gemcitabine]
- inhibition at 5 µM (EV71 [15]; [16]): > 50%

Structure (SMILES): CC(=O)[C@]1(O)Cc2c(O)c3c(c(O)c2[C@@H](O[C@H]2C[C@H](N)[C@H](O)[C@H](C)O2)C1)C(=O)c1ccccc1C3=O [idarubicin]
- inhibition at 5 µM (EV71 [15]; [16]): > 50%

Structure (SMILES): O=C1c2c(O)ccc(O)c2C(=O)c2c(NCCNCCO)ccc(NCCNCCO)c21 [mitoxantrone]
- inhibition at 5 µM (EV71 [15]; [16]): > 50%
